Test results published in patent US8865623B2, “Herbicidally active cyclic diones and derivatives thereof, processes for their preparation, compositions, and method of controlling weeds” (Syngenta Limited, priority 2009, dated 2014).

What was measured:
Format in all cases: in vivo
Lolium perenne (LOLPE) [1] = test: Pre-emergence herbicidal activity, glasshouse pot test; settings: evaluated after 13 days; for pest or weed control at 250 g/ha: Lolium perenne, 312 h, Rate 250 g/ha, pre-emergence spray, read-out: Pre-emergence activity LOLPE (100=total damage to plant; 0=no damage to plant)
Outline: (§1)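 Rating: 0 (no damage) to 100 (total damage), 13 days after application. Application: aqueous spray from a.i. in acetone/water (50:50) + 0.5% Tween 20, one day (pre) or 8 days (post) after sowing. Glasshouse: 24/16° C, 14 h light, 65% humidity.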

[2] = system: Alopecurus myosuroides (ALOMY); test: as above; settings: evaluated after 13 days; for pest or weed control at 250 g/ha: Alopecurus myosuroides, 312 h, Rate 250 g/ha, pre-emergence spray, read-out: Pre-emergence activity ALOMY (100=total damage to plant; 0=no damage to plant)
Outline: as §1

[3] = system: Echinochloa crus-galli (ECHCG); test: as above; settings: evaluated after 13 days; for pest or weed control at 250 g/ha: Echinochloa crus-galli, 312 h, Rate 250 g/ha, pre-emergence spray, read-out: Pre-emergence activity ECHCG (100=total damage to plant; 0=no damage to plant)
Outline: as §1

Avena fatua (AVEFA) [4] = test: as above; settings: evaluated after 13 days; for pest or weed control at 250 g/ha: Avena fatua, 312 h, Rate 250 g/ha, pre-emergence spray, read-out: Pre-emergence activity AVEFA (100=total damage to plant; 0=no damage to plant)
Outline: as §1

Lolium perenne (LOLPE) [5] = test: Post-emergence herbicidal activity, glasshouse pot test; settings: rate 250 g/ha, evaluated after 13 days; for pest or weed control at 250 g/ha: Lolium perenne, 312 h, glasshouse, read-out: Post-emergence activity LOLPE (100=total damage to plant; 0=no damage to plant)
Outline: as §1

[6] = system: Alopecurus myosuroides (ALOMY); test: as above; settings: rate 250 g/ha, evaluated after 13 days; for pest or weed control at 250 g/ha: Alopecurus myosuroides, 312 h, glasshouse, read-out: Post-emergence activity ALOMY (100=total damage to plant; 0=no damage to plant)
Outline: as §1

[7] = system: Echinochloa crus-galli (ECHCG); test: as above; settings: rate 250 g/ha, evaluated after 13 days; for pest or weed control at 250 g/ha: Echinochloa crus-galli, 312 h, glasshouse, read-out: Post-emergence activity ECHCG (100=total damage to plant; 0=no damage to plant)
Outline: as §1

Avena fatua (AVEFA) [8] = test: as above; settings: rate 250 g/ha, evaluated after 13 days; for pest or weed control at 250 g/ha: Avena fatua, 312 h, glasshouse, read-out: Post-emergence activity AVEFA (100=total damage to plant; 0=no damage to plant)
Outline: as §1

| SMILES | pest or weed control at 250 g/ha (Lolium perenne (LOLPE) [1]) [%] | pest or weed control at 250 g/ha [2] [%] | pest or weed control at 250 g/ha [3] [%] | pest or weed control at 250 g/ha (Avena fatua (AVEFA) [4]) [%] | pest or weed control at 250 g/ha (Lolium perenne (LOLPE) [5]) [%] | pest or weed control at 250 g/ha [6] [%] | pest or weed control at 250 g/ha [7] [%] | pest or weed control at 250 g/ha (Avena fatua (AVEFA) [8]) [%] | LOLPE damage to plant (100=total damage to plant; 0=no damage to plant) (Lolium perenne (LOLPE) [1]; pre-emergence, rate 250 g/ha) | ALOMY damage to plant (100=total damage to plant; 0=no damage to plant) ([2]; pre-emergence, rate 250 g/ha) | ECHCG damage to plant (100=total damage to plant; 0=no damage to plant) ([3]; pre-emergence, rate 250 g/ha) | AVEFA damage to plant (100=total damage to plant; 0=no damage to plant) (Avena fatua (AVEFA) [4]; pre-emergence, rate 250 g/ha) | LOLPE damage to plant (100=total damage to plant; 0=no damage to plant) (Lolium perenne (LOLPE) [5]) | ALOMY damage to plant (100=total damage to plant; 0=no damage to plant) [6] | ECHCG damage to plant (100=total damage to plant; 0=no damage to plant) [7] | AVEFA damage to plant (100=total damage to plant; 0=no damage to plant) (Avena fatua (AVEFA) [8]) |
| --- | --- | --- | --- | --- | --- | --- | --- | --- | --- | --- | --- | --- | --- | --- | --- | --- |
| CCc1ccc(Oc2nc3ccc([N+](=O)[O-])cc3s2)cc1C1=C(O)[C@@H]2CC[C@](C)(C1=O)C2(C)C [Example A-325] | 90 | 60 | 100 | 20 | 40 | 50 | 100 | 30 | – | – | – | – | – | – | – | – |
| CCc1ccc(Oc2nc3ccc(Cl)cc3s2)cc1C1=C(O)CC(C)(C)CC1=O [Example A-287] | 100 | 100 | 100 | 90 | 100 | 100 | 100 | 100 | – | – | – | – | – | – | – | – |
| CCc1ccc(Oc2ccc(C(F)(F)F)cn2)cc1C1=C(O)[C@H]2CC[C@H](C2)C1=O [Example A-334] | 100 | 100 | 100 | 100 | 100 | 90 | 100 | 100 | – | – | – | – | – | – | – | – |
| CCc1ccc(Oc2nc3c(Cl)cccc3s2)cc1C1=C(O)C(C)(C)OC(C)(C)C1=O [Example A-193] | 70 | 30 | 90 | 20 | 100 | 80 | 100 | 10 | – | – | – | – | – | – | – | – |
| CCc1ccc(Oc2ccc(Cl)c(F)c2)cc1C1=C(O)CCCC1=O [Example A-68] | 70 | 30 | 100 | 30 | 60 | 60 | 100 | 40 | – | – | – | – | – | – | – | – |
| CCCC(=O)OC1=C(c2cc(Oc3ccc(C#N)cc3F)ccc2CC)C(=O)C(C)(C)OC1(C)C [Example P-3] | – | – | – | – | – | – | – | – | 100 | 70 | 100 | 70 | 90 | 90 | 100 | 60 |
| CCc1ccc(Oc2cccc(F)n2)cc1C1=C(O)C(C)(C)OC(C)(C)C1=O [Example A-43] | 10 | 10 | 90 | 0 | 20 | 0 | 70 | 0 | – | – | – | – | – | – | – | – |
| CCCc1cnc(Oc2ccc(CC)c(C3=C(O)C(C)(C)OC(C)(C)C3=O)c2)nc1 [Example A-128] | 60 | 20 | 50 | 10 | 40 | 50 | 70 | 30 | – | – | – | – | – | – | – | – |
| CCc1ccc(Oc2nc3c(Cl)cc(Cl)cc3s2)cc1C1=C(O)[C@@H]2CC[C@](C)(C1=O)C2(C)C [Example A-328] | 90 | 50 | 100 | 30 | 70 | 60 | 100 | 80 | – | – | – | – | – | – | – | – |
